Laboratory results: patent publication US20260217701A1, “SELECTIVE BET INHIBITORS AND USES THEREOF” (Tay Therapeutics Limited, priority 2022, published 2026)
Where “and” joins values, the source holds several entries; their conditions need not be identical. Equal entries are not always repeated. Where two headings read alike, the source gives them in different places.

Key:
[1] = UUO study: plasma concentration of Compound A; type: in vivo, rats; settings: for concentration at 4 h: rat, plasma, oral, 10 mg/kg
lupus [2] = assay: SLE (lupus) model: proteinuria scores; type: in vivo, MRL/MpJ-Faslpr mice; settings: for End proteinuria score ± SEM: end of study (Week 19)
Description: (§1) Female MRL/MpJ-Faslpr mice (The Jackson Laboratory) were used to assess the efficacy of Compound A in treating lupus. Starting when animals were 10 weeks of age, protein concentration in urine was measured using urine dipsticks.
(§2) At the start of the study, each group in the study had two animals that were 9 weeks old, and all others were 10 weeks old. Dosing of all animals with the test compounds began when the older animals were 11 weeks old. […] […] Dosing was at a consistent time each dosing day throughout the study.
(§3) Compound A may be formulated as illustrated in Experimental Method A (see Table 2E.). […] A stock solution of Compound A in DMSO (stock solution concentration of Compound A of 40 mg/mL) was prepared and aliquots for weekly preparations were frozen at −20° C. On each preparation day, a stock solution aliquot was thawed and diluted with other vehicle components to the desired concentration. Formulated Compound A and vehicle were at room temperature for dosing.
(§4) The study began when the older animals were 11 weeks old, and concluded when the older animals were 19 weeks old. Body weight was recorded once a week, with the exception of two weight measurements taken the first week of the study (when the older animals were 11 weeks old). Proteinuria was measured in the urine of animals with urine dipsticks once a week, starting when the older animals were 10 weeks old. […] Blood samples were taken retro-orbitally at the start of the study to establish a baseline (15 animals, 3 per group), and when the older animals were 16 weeks (all animals) and when animals were 19 weeks (all animals) at the conclusion of the study. Blood urea nitrogen (BUN) was measured in all animals at study termination in blood samples. After blood collection, animals were euthanized, perfused with PBS, and the left kidneys were collected and weighed and fixed in 10% buffered formalin. Left kidneys were then processed to a formalin-fixed, paraffin-embedded (FFPE) block, and histology was analyzed in Periodic Acid-Schiff-stained sections (1 section per slide), using the criteria described in Alperovich et al., Lupus, 16:18-24 (2007). Right kidneys were weighed and snap-frozen at −80° C. Spleens were also collected and weighed. SLE in animals treated with a BET inhibitor and vehicle.

BRD4 BD2 = biological target: T1, BRD4 BD2 (Homo sapiens, UniProt O60885); assay: NanoBRET bromodomain assay, NanoLuc-BRD4-BD2 in HEK293 cells; type: binding
T1 construct: HEK293 cells were transfected using NanoLuc-BRD4-BD1 or NanoLuc-BRD4-BD2 fusion vectors
Description: Plates were then incubated at 37° C.+5% CO2 incubator for 2 hours.
Fold Selectivity Calculated (IC50 BD1/IC50 BD2).

IL-17A = IL-17A release from activated human PBMCs (ELISA); type: cell-based
Description: Human PBMCs used to analyze inhibition of CXCL10 were collected from 8 donors, PBMCs used to analyze inhibition of IL-17A were collected from 7 donors, and PBMCs used to analyze inhibition of IL-22 were collected from 6 donors. Compounds were serially diluted in 10 mM DMSO and further diluted in assay media to 100× the required final concentration, of which 2 μL was added to the specified well. […] The cell culture supernatant was collected and levels of IL-17A and IL-22 in the supernatant were assessed by ELISA (Invitrogen).

BET BD2 = assay: Comparison with other BET inhibitors in development (EC50, selectivity, oral bioavailability; public information)
lupus [3] = assay: SLE (lupus) model: kidney histology lesion scores; type: in vivo, MRL/MpJ-Faslpr mice; settings: for Total Glomerular Lesion (mean score) / Total Glomerular Lesion (table title: Mean Total Kidney Lesion Scores) / Total Tubular and Interstitial Lesion (mean score) / Mean total glomerular lesion score / Mean total kidney lesion score / Mean total tubular and interstitial lesion score: Week 19
Description: as §1, §2, §3, §4

Cn1cc(-c2ccccc2)c(-c2cn(C)c(=O)c3[nH]c(-c4cnn(C(F)(F)F)c4)cc23)cc1=O [Compound A, 6-methyl-4-(1-methyl-2-oxo-5-phenyl-1,2-dihydropyridin-4-yl)-2-(1-(trifluoromethyl)-1H-pyrazol-4-yl)-1,6-dihydro-7H-pyrrolo[2,3-c]pyridin-7-one]
Concentration ([1]; UUO + Compound A, male SD rats, time 4 h, individual Test Subjects 1-8): 220 ng/mL and 318 ng/mL and 133 ng/mL and 215 ng/mL and 132 ng/mL and 194 ng/mL and 198 ng/mL and 195 ng/mL
concentration at 4 h ([1]; male, Sprague-Dawley, UUO + Compound A, male SD rats, time 4 h, mean of 8 test subjects, read-out: Concentration, Mean): 201 ng/mL
concentration at 4 h ([1]; po, four hours after final treatment, read-out: Mean plasma concentration): 201 ng/mL
Proteinuria levels, lower than vehicle-treated group (lupus [2]; 10 mg/kg, Week 19): about 74.8%
Proteinuria levels (lupus [2]; 1, 3, 10 mg/kg): reduced proteinuria levels in a dose-dependent manner
Mean proteinuria score (lupus [2]; Compound A 1 mg/kg PO QD, Week 10): 1.96
Mean proteinuria score (lupus [2]; Compound A 1 mg/kg PO QD, Week 11): 1.96 +
Mean proteinuria score (lupus [2]; Compound A 1 mg/kg PO QD, Week 12): 2.29
Mean proteinuria score (lupus [2]; Compound A 1 mg/kg PO QD, Week 13): 2.57
Mean proteinuria score (lupus [2]; Compound A 1 mg/kg PO QD, Week 14): 2.79
Mean proteinuria score (lupus [2]; Compound A 1 mg/kg PO QD, Week 15): 3.07
Mean proteinuria score (lupus [2]; Compound A 1 mg/kg PO QD, Week 16): 2.82
Mean proteinuria score (lupus [2]; Compound A 1 mg/kg PO QD, Week 17): 3.07
Mean proteinuria score (lupus [2]; Compound A 1 mg/kg PO QD, Week 18): 3.11±
Mean proteinuria score (lupus [2]; Compound A 1 mg/kg PO QD, Week 19): 3.36
End proteinuria score ± SEM (lupus [2]; Compound A 1 mg/kg PO QD): 3.36 ± 0.19
Mean proteinuria score (lupus [2]; Compound A 3 mg/kg PO QD, Week 10): 1.96
Mean proteinuria score (lupus [2]; Compound A 3 mg/kg PO QD, Week 11): 1.96
Mean proteinuria score (lupus [2]; Compound A 3 mg/kg PO QD, Week 12): 2.04
Mean proteinuria score (lupus [2]; Compound A 3 mg/kg PO QD, Week 13): 2.50
Mean proteinuria score (lupus [2]; Compound A 3 mg/kg PO QD, Week 14): 2.46
Mean proteinuria score (lupus [2]; Compound A 3 mg/kg PO QD, Week 15): 2.85
Mean proteinuria score (lupus [2]; Compound A 3 mg/kg PO QD, Week 16): 2.65
Mean proteinuria score (lupus [2]; Compound A 3 mg/kg PO QD, Week 17): 2.77
Mean proteinuria score (lupus [2]; Compound A 3 mg/kg PO QD, Week 18): 2.73
Mean proteinuria score (lupus [2]; Compound A 3 mg/kg PO QD, Week 19): 3.04
End proteinuria score ± SEM (lupus [2]; Compound A 3 mg/kg PO QD): 3.04 ± 0.24
Mean proteinuria score (lupus [2]; Compound A 10 mg/kg PO QD, Week 10): 1.96
Mean proteinuria score (lupus [2]; Compound A 10 mg/kg PO QD, Week 11): 1.96
Mean proteinuria score (lupus [2]; Compound A 10 mg/kg PO QD, Week 12): 2.04
Mean proteinuria score (lupus [2]; Compound A 10 mg/kg PO QD, Week 13): 2.21
Mean proteinuria score (lupus [2]; Compound A 10 mg/kg PO QD, Week 14): 2.07
Mean proteinuria score (lupus [2]; Compound A 10 mg/kg PO QD, Week 15): 2.43
Mean proteinuria score (lupus [2]; Compound A 10 mg/kg PO QD, Week 16): 2.32
Mean proteinuria score (lupus [2]; Compound A 10 mg/kg PO QD, Week 17): 2.32
Mean proteinuria score (lupus [2]; Compound A 10 mg/kg PO QD, Week 18): 2.00
Mean proteinuria score (lupus [2]; Compound A 10 mg/kg PO QD, Week 19): 2.32
End proteinuria score ± SEM (lupus [2]; Compound A 10 mg/kg PO QD): 2.32 ± 0.15
selectivity for BDII relative to GSK620 (BRD4 BD2): greater than about two orders of magnitude
Selectivity (BD1/BD2) (BRD4 BD2; nanoBRET assay, given as symbol only, higher number denotes higher selectivity): >>>>
BD2 (BRD4 BD2; nanoBRET assay, given as symbol only, lower number denotes higher potency): <
EC50 (BRD4 BD2; previously determined, reference level for rat plasma concentrations (FIG. 4D), read-out: free EC50 BD2 BRD4 (converted)): 18.9 nM
EC50 (BRD4 BD2; reference level for dog plasma concentrations (Dog PK study #4), read-out: free EC50 BD2 BRD4 (converted)): 14.5 nM
EC50 (BRD4 BD2; stated with the CIA study PK, domain not stated, read-out: free EC50 (converted)): 17.2 nM
potency against IL-17A relative to CXCL10 (IL-17A): about 13,000 fold
Biomarker selectivity (IL-17 vs. CXCL10) (IL-17A; Average preliminary biomarker assay): 3492 Fold
Percent Inhibition Relative to Control (IL-17A) (IL-17A; Compound Conc. 0.000137174 μM, Donors 1-7, two values per donor): 30.76% and 39.93% and 12.53% and 17.16% and 22.57% and 38.63% and 4.46% and 42.02% and 55.02* Percent and 40.50% and 25.91% and 19.06% and 25.23% and 32.91%
Percent Inhibition Relative to Control (IL-17A) (IL-17A; Compound Conc. 0.000411523 μM, Donors 1-7, two values per donor): 42.92% and 60.88% and 49.48% and 23.24% and 46.54% and 52.23% and 60.62% and 51.01% and 51.11% and 62.34% and 51.68% and 47.46% and 28.29% and 56.37%
Percent Inhibition Relative to Control (IL-17A) (IL-17A; Compound Conc. 0.001234568 μM, Donors 1-7, two values per donor): 56.92% and 75.17% and 53.28% and 57.9% and 62.54% and 63.56% and 62.80% and 67.54% and 70.18% and 58.60% and 66.13% and 59.19% and 60.91% and 75.98%
Percent Inhibition Relative to Control (IL-17A) (IL-17A; Compound Conc. 0.011111111 μM, Donors 1-7, two values per donor): 75.17% and 74.77% and 72.8%
Percent Inhibition Relative to Control (IL-17A) (IL-17A; Compound Conc. 0.033333333 μM, Donors 1-7, two values per donor): 76.69% and 83.98% and 75.68% and 76.46% and 73.03% and 78.96% and 78.00% and 81.52% and 83.08% and 69.43% and 73.08% and 77.7% and 78.81% and 89.99%
Percent Inhibition Relative to Control (IL-17A) (IL-17A; Compound Conc. 0.1 μM, Donors 1-7, two values per donor): 80.29% and 80.05% and 78.2% and 79.86% and 80.34% and 80.42% and 83.72% and 86.56% and 80.96% and 85.39% and 77.87% and 84.04% and 85%
Percent Inhibition Relative to Control (IL-17A) (IL-17A; Compound Conc. 1.52416E−05 μM, Donors 1-7, two values per donor): −2.11% and 5.95% and 4.5% and 4.36% and −0.57% and 6.2% and −11.47% and 18.94% and 28.57% and 13.94% and 37.95% and −8.34% and 0.61% and 18.05%
Percent Inhibition Relative to Control (IL-17A) (IL-17A; Compound Conc. 4.57247E−05 μM, Donors 1-7, two values per donor): −1.00% and 28.73% and 7.45% and 18.97% and 13.64% and 16.93% and −0.28% and 32.68% and 27.06% and 28.89% and 20.58% and 2.83% and 7.11% and 42.94%
IC50 (IL-17A; Homo sapiens, PBMC, Average preliminary biomarker assay, read-out: IL-17A IC50 Mean): 0.3 nM
inhibition at 0.1 µM (IL-17A; Homo sapiens, PBMC, Compound Conc. 0.1 μM, Donors 1-7, two values per donor, read-out: Percent Inhibition Relative to Control (IL-17A)): 80.8%
IC50 (IL-17A; Homo sapiens, PBMC, Preliminary biomarker assay, Test Subject 1, read-out: IL-17A IC50): 0.2 nM
IC50 (IL-17A; Homo sapiens, PBMC, Preliminary biomarker assay, Test Subject 2, read-out: IL-17A IC50): 0.3 nM
IC50 (IL-17A; Homo sapiens, PBMC, Preliminary biomarker assay, Test Subject 3, read-out: IL-17A IC50): 0.4 nM
IC50 (IL-17A; Homo sapiens, PBMC, ELISA, read-out: Selectivity (IC50) IL-17A): 0.271 nM
IC50, inhibition of release of IL-17A (IL-17A; human PBMCs, 72 hours): sub-nanomolar
effectiveness relative to GSK620 in reducing IL-17A, IL-22 and CXCL10 (IL-17A; preliminary biomarker assays): more effective than GSK620
selectivity relative to other BET inhibitors (BET BD2; same comparators): higher selectivity
EC50 relative to other BET inhibitors (BET BD2; vs NUV-868, ABBV-744, GSK620, Pelabresib, ABBV-075, MK-8628/OTX-015, BI-894999): lower EC50
Total Glomerular Lesion (mean score) (lupus [3]; Compound A 1 mg/kg PO QD): 3.9
Total Glomerular Lesion (table title: Mean Total Kidney Lesion Scores) (lupus [3]; Compound A 1 mg/kg PO QD): 5.1
Total Tubular and Interstitial Lesion (mean score) (lupus [3]; Compound A 1 mg/kg PO QD): 1.2
Total Glomerular Lesion (mean score) (lupus [3]; Compound A 3 mg/kg PO QD): 2.7
Total Glomerular Lesion (table title: Mean Total Kidney Lesion Scores) (lupus [3]; Compound A 3 mg/kg PO QD): 3.8
Total Tubular and Interstitial Lesion (mean score) (lupus [3]; Compound A 3 mg/kg PO QD): 1.1
Total Glomerular Lesion (mean score) (lupus [3]; Compound A 10 mg/kg PO QD): 1.1
Total Glomerular Lesion (table title: Mean Total Kidney Lesion Scores) (lupus [3]; Compound A 10 mg/kg PO QD): 1.6
Total Tubular and Interstitial Lesion (mean score) (lupus [3]; Compound A 10 mg/kg PO QD): 0.5
Mean total glomerular lesion score (lupus [3]; 1 mg/kg): about 3.9
Mean total kidney lesion score (lupus [3]; 1 mg/kg): about 5.1
Mean total tubular and interstitial lesion score (lupus [3]; 1 mg/kg): about 1.2
Mean total glomerular lesion score (lupus [3]; 3 mg/kg): about 2.7
Mean total kidney lesion score (lupus [3]; 3 mg/kg): about 3.8
Mean total tubular and interstitial lesion score (lupus [3]; 3 mg/kg): about 1.1
Mean total glomerular lesion score (lupus [3]; 10 mg/kg): about 1.1
Mean total kidney lesion score (lupus [3]; 10 mg/kg): about 1.6
Mean total tubular and interstitial lesion score (lupus [3]; 10 mg/kg): about 0.5
Kidney histology images (FIGS. 30H-30L), disease suppression (lupus [3]; increasing dosage): dose dependent improvement in disease suppression
